Experimental data published in US10266499B2, “Imidazole derivatives as prodrugs of diclofenac” (priority 2014, dated 2019).
≈ marks a conversion by molar mass, not a printed value. Like-named read-outs stand apart in the source and are kept apart here.

Key:
[1] = system: osteoarthritis pain induced by a single injection of MIA; experiment: Monosodium iodoacetate (MIA) model of osteoarthritis, joint compression thresholds; assay type: in vivo, Sprague-Dawley rats; conditions: for mean joint compression thresholds compared to the vehicle group: 0.3 mg intra-articular; for reversal of osteoarthritis pain compared to vehicle treated animals: single intra-articular administration of 0.3 mg
Source text: Osteoarthritis is the most common form of joint disease. Nearly one third of adults in the United States suffer from osteoarthritis and it is the most common cause of disability in adults in the United States. The monosodium iodoacetate (MIA) model of osteoarthritis described here produces changes in the structure and integrity of the affected cartilage that is very similar to what is seen in human osteoarthritis. Sodium iodoacetate is a metabolic inhibitor that, when injected into the joint space, selectively kills chondrocytes, the cells that form cartilage. Over a period of 2-3 weeks, the loss of cartilage produces a state highly analogous to human osteoarthritis characterized by joint instability, loss of cartilage, and decreased bone quality around the affected joint. These physiological changes are also accompanied by pain in the affected joint.
In this study, osteoarthritis was induced by a single injection of MIA (2 mg) into the synovium of the left knee, which results in increased sensitivity to pressure. For this particular study, the test compounds were given 14 days post-MIA injection to determine if the test compound can reduce the sensitivity.
• Vehicle (0.01% Tween 80 in phosphate buffer) administered intra-articularly at a dose volume of 30 μl on day 0. • Test articles DPX-1-0008, DPX-1-0011, DPX-1-0018, DPX-1-0020, DPX-1-0023, and DPX-1-0024, administered intra-articularly at a dose of 0.3 mg on day 0. • Diclofenac, administered orally at a dose of 10 mg/kg on day 8 to the vehicle group. Methods
A total of 82 male, Sprague-Dawley rats underwent MIA injection with the goal of having 70 animals available for the pharmacology treatment due to 15% failure of developing a pain state. Fourteen days after MIA injection, animals met the inclusion criteria were assigned to one of seven groups (vehicle, test article DPX-1-0008, DPX-1-0011, DPX-1-0018, DPX-1-0020, DPX-1-0023, and DPX-1-0024) and received the assigned treatment. Joint compression thresholds were assessed prior to MIA injection, prior to dosing with control/test articles, and 1, 2, 4, and 7 days post-dosing. Diclofenac served as the positive control for the study. On day 8, animals in the vehicle group received diclofenac (10 mg/kg, PO) and joint compression were assessed prior to, 1 and 2 hours after dosing for all the animals. All animals were euthanized on day 8 following the behavioral assessment.

[2] = pKa-value using a GLpKa meter; assay type: physicochemical; conditions: 25° C.
[3] = Solubility in 67 mM phosphate buffer pH 7.4 and in hydrochloride solutions at 37° C.; assay type: physicochemical; conditions: for solubility thermodynamic: 37 °C, thermodynamic from solid, read-out: S
Experimental: The determination of the solubility of a prodrug at different pH values of interest according to the present invention is carried by adding excess solid prodrug to a container containing a buffer solution with well-defined pH. The mixture is rotated at constant temperature until an equilibrium between solid prodrug and prodrug in solution has established (that is until the prodrug concentration in the supernatant remains constant). At each measurement the pH of the supernatant is controlled and, if needed, adjusted to the desired pH. In a similar manner the solubility of a prodrug in a tissue fluid including the synovial fluid can be determined. The latter procedure comprises a simple way of testing if the solubility at the selected lower pH is indeed at least 100 times higher than the corresponding solubility in the physiological fluid it is injected into. […] For instance, a decrease in pH from pH 7.4 to 2.0 will result in a 1000-fold increase in the solubility of a base with a pKa value of 5, whereas the solubility will increase by a factor of about 9618 for a base with a pKa value of 6. These predicted alterations in pH dependent solubilities can be calculated from the expression: St=S0*(1+10^pKa-pH) where St is the total solubility at a given pH and S0 is the solubility of the neutral form of the prodrug.
A surplus of prodrug was added to either PBS pH 7.4 or H2O. 0.1 M HCl was added to the H2O to decrease pH to around 3-4. The mixtures were rotated at 37° C. and a sample was withdrawn after approximately 24 and 48 hours or later. The withdrawn sample was filtered through a 0.45 μm Millex®-HV (Millipore, Japan) low protein binding filter (the first 0.5 mL discarded) and a known volume of the sample was diluted. The pH 7.4 samples were diluted with PBS and the acidic samples with mobile phase A (section 2.5). A standard dissolved in PBS was made for the pH 7.4 samples and a standard dissolved in mobile phase A for the acidic samples. The PBS standards used for the standard curves were treated like the samples to avoid false results caused by adsorption. The standard curves were made to cover the concentration interval of the samples after dilution.
From the observed relatively stable concentration of dissolved prodrugs measured in the suspensions after 8-9 day up to 23 days, the solubilities of the prodrugs (Sprodrug) were determined. In this time interval, the rate of appearance of parent drug was determined and an apparent pseudo-zero-order rate constant (k0) was obtained. By assuming that the dissolution rates were much faster than the conversion of the prodrugs to the parent drug, pseudo first-order rate constants (khyd) for cleavage of the prodrugs were calculated according to: […]

[4] = Stability in 80% (v/v) human plasma at 37° C.; assay type: in vitro ADME; conditions: 80% plasma
Experimental: (§1) The stability of the prodrugs was determined in PBS, 80% human SF, 80% human plasma and 80% rat serum at 37° C. 10, 20 or 50 μL of prodrug solution in MeOH was added to 1.0 mL 80% rat serum, 2.5 mL 80% SF or human plasma or 10.0 mL PBS, respectively to give a final prodrug concentration corresponding to the solubility at pH 7.4 at 37° C. Samples were withdrawn at appropriate intervals depending on the rate of degradation. The samples from the biological medias were added to MeCN (1:2 (v:v)) vortexed and centrifuged (5 min, 10000 RPM) and the supernatant analyzed by HPLC. The 700 μL PBS samples were added to 100 μL PBS and mixed before analysis by HPLC. First a pilot study was performed with n=1 to find the appropriate sampling times and thereafter an experiment with n=3. The stability was determined from the decrease in the area of prodrug.

[5] = Stability in 80% (v/v) human SF at 37° C.; assay type: in vitro ADME; conditions: 80% (v/v) human SF (synovial fluid), 80% SF batch 210513, 37° C.
Experimental: as §1

[6] = Stability in 80% (v/v) rat serum at 37° C.; assay type: in vitro ADME; conditions: pH 7.4, 80% rat serum
Experimental: as §1

[7] = Stability in PBS pH 7.4 at 37° C.; assay type: physicochemical; conditions: pH 7.4, PBS pH 7.4, 37° C.
Experimental: as §1

[8] = hydrochloride solution pH 4.35, 37° C., n = 6

Row | Structure (SMILES) | mean joint compression thresholds compared to the vehicle group ([1]; 8 days post-dosing) | reversal of osteoarthritis pain compared to vehicle treated animals [1] | pKa [2] | S (mM) ([3]; 67 mM phosphate buffer pH 7.4, 37° C., n = 6) | solubility thermodynamic ([3]; 67 mM phosphate buffer, pH 7.4, aqueous buffer, 67 mM phosphate buffer pH 7.4, 37° C., n = 6) [µg/mL] | S (mM) [3, 8] [mM] | S (μg/ml) [3, 8] [µg/mL] | solubility thermodynamic ([3]; hydrochloride solution, pH 4.35, aqueous buffer, hydrochloride solution pH 4.35, 37° C., n = 6) [µg/mL] | decrease of solubility from pH 4.35 to pH 7.4 ([3]; pH 4.35 vs pH 7.4) [fold] | half-life at 2.7 μg/ml [4] [min] | half-life at 2.7 μg/ml [5] [min] | half-life at 2.7 μg/ml [6] [min] | half-life at 2.7 μg/ml ([7]; read-out: T1/2 (days)) [days] | half-life at 2.7 μg/ml ([7]; read-out: T1/2 (min)) [days] | mean joint compression thresholds compared to the vehicle group ([1]; 1 day post-dosing) | mean joint compression thresholds compared to baseline values on day 8 ([1]; 10 mg/kg oral, 1 and 2 hours post-dosing)
1 | O=C(Cc1ccccc1Nc1c(Cl)cccc1Cl)OCCCn1ccnc1 [DPX-1-0018] | significantly increased | significantly reversed |  |  |  |  |  |  |  |  |  |  |  |  |  | 
2 | Cc1ncn(CCOC(=O)Cc2ccccc2Nc2c(Cl)cccc2Cl)c1C [DPX-1-0023] |  | significantly reversed | 7.92 | 0.0064 ± 0.0005 | ~2.7 (≈ 0.00645 mM) | 7.2 ± 0.1 | 3019 | 3020 ± 62 (≈ 7.22 mM) | 1118 | 5.1 ± 0.5 | 39.8 ± 2.8 | 6.1 ± 0.4 | 0.75 | 0.752 ± 0.114 | significantly increased | 
3 | O=C(O)Cc1ccccc1Nc1c(Cl)cccc1Cl [diclofenac] |  |  |  |  |  |  |  |  |  |  |  |  |  |  |  | significantly increased
